In ChEMBL document CHEMBL1129151, “Stereoselective synthesis of lewis-associated trisaccharides as E-selectin inhibitors” (Bioorg Med Chem Lett, 1996):

Assays:
[1] = tested on: Mus musculus; assay: In vivo ability to inhibit lipoteichoic acid (LTA)-induced neutrophil accumulation in murine pleurisy model at a dose of 30 mg/kg upon iv administration; type: functional; settings: for inhibition in vivo at 30 mg/kg: Mus musculus, iv; for Inhibition: 30 mg/kg
[2] = target: T1, E-selectin (Homo sapiens, UniProt P16581); assay: In vitro ability to inhibit the adhesion of HL-60 cells to purified recombinant human Selectin E; type: cell-based
T1 sequence (P16581 whole entry): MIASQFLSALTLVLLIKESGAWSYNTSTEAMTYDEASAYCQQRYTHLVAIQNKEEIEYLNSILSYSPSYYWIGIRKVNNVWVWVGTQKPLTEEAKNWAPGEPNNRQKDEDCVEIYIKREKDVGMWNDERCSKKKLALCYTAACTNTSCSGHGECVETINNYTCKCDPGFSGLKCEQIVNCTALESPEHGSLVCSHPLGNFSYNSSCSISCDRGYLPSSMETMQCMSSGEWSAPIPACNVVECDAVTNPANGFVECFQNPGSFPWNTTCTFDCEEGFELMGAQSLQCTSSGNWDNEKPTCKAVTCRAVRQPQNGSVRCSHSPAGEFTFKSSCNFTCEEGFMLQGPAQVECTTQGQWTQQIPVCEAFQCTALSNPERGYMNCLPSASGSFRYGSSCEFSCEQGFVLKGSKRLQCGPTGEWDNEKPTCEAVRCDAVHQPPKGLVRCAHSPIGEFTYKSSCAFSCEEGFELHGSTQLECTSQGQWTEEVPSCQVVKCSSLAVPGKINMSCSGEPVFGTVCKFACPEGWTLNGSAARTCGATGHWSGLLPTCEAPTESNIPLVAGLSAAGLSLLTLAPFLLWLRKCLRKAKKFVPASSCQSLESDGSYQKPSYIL

| SMILES | inhibition in vivo at 30 mg/kg [1] [%] | IC50 [2] [mM] | Inhibition [1] [%] |
| --- | --- | --- | --- |
| CCO[C@@H]1O[C@@H](CO)[C@@H](O[C@@H]2O[C@@H](CO)[C@H](O)C(O)[C@@H]2O)C(O[C@@H]2O[C@@H](C)[C@@H](O)[C@H](O)[C@@H]2O)[C@@H]1NC(=O)c1ccc2ccccc2c1 (single isomer, unassigned) | 3 | > 6.6 |  |
| CCO[C@@H]1O[C@@H](CO)[C@@H](O[C@@H]2O[C@@H](CO)[C@H](O)C(O)[C@@H]2O)C(O[C@@H]2O[C@@H](C)[C@@H](O)[C@H](O)[C@@H]2O)[C@@H]1NC(C)=O (single isomer, unassigned) | 31 | > 6.6 |  |
| CCO[C@@H]1O[C@@H](CO)[C@@H](O[C@@H]2O[C@H](C)[C@H](O)[C@H](O)[C@@H]2O)[C@H](O[C@@H]2O[C@@H](CO)[C@H](O)[C@H](O)[C@@H]2O)[C@@H]1NC(C)=O (stereo in doubt; 1) |  | > 6.6 | 37 |
| CCO[C@@H]1O[C@@H](CO)[C@@H](O[C@@H]2O[C@@H](C)[C@H](O)[C@H](O)[C@@H]2O)[C@H](O[C@@H]2O[C@@H](CO)[C@H](O)[C@H](O)[C@@H]2O)[C@@H]1NC(=O)c1ccc2ccccc2c1 (stereo in doubt; 2) | 49 | > 6.6 |  |
| CCO[C@@H]1O[C@@H](CO)[C@@H](O[C@@H]2O[C@H](C)[C@H](O)[C@H](O)[C@@H]2O)[C@H](O[C@@H]2O[C@@H](CO)[C@H](O)[C@H](O)[C@@H]2O)[C@@H]1NC(C)=O (stereo in doubt; 3) | 51 | 1.4 |  |
| CCO[C@@H]1O[C@@H](CO)[C@@H](O[C@@H]2O[C@@H](C)[C@H](O)[C@H](O)[C@@H]2O)[C@H](O[C@@H]2O[C@@H](CO)[C@H](O)[C@H](O)[C@@H]2O)[C@@H]1NC(=O)c1ccc2ccccc2c1 (stereo in doubt; 4) |  | 2 | 62 |
